{"source": "patent US20110082410A1", "about": "(priority 2009, published 2011)", "key": {"[1]": {"tested_on": "superficial basal cell carcinomas", "conditions": "low irradiance of range 10-50 mW/cm^2; cited from earlier work"}, "[2]": {"conditions": "local anesthesia: infiltrating, spraying or topical solution for transdermal delivery; cited from earlier work"}, "[3]": {"conditions": "topical, compared to ALA; cited from earlier work"}, "hair follicle": {"tested_on": "hair follicle", "assay": "Pulsed PDT for removal of unwanted hair with the photosensitizer methylene blue: pain during irradiation", "conditions": "for PAIN: 665 nm"}}, "data": [{"smiles": "NCC(=O)CCC(=O)O", "note": "[delta-ALA, δ-Aminolevulinic Acid]", "values": [{"measurement": "Pain induced by PDT treatment", "setting": "[1]", "result": "no significant pain was reported"}]}, {"smiles": "CCN(CC)CC(=O)Nc1c(C)cccc1C", "note": "[lidocaine]", "values": [{"measurement": "Improvement of PDT-associated discomfort and pain", "setting": "[2]", "result": "not produced any significant improvement"}]}, {"smiles": "COC(=O)CCC(=O)CN", "note": "[methyl-ester-ALA]", "values": [{"measurement": "Pain during illumination", "setting": "[3]", "result": "significantly less pain compared to ALA"}]}, {"smiles": "CN(C)c1ccc2nc3ccc(=[N+](C)C)cc-3sc2c1", "note": "[methylene blue]", "values": [{"measurement": "PAIN", "setting": "hair follicle; 5 s CW irradiation, 10 W/cm^2", "result": "very painful"}, {"measurement": "Effectiveness of pulsed PDT for removal of unwanted hair", "setting": "hair follicle; pulsed radiation", "result": "effective without pain"}, {"measurement": "PAIN", "setting": "hair follicle; trial 1: 2 pulses, pulse on 2.5 s, pulse off 0.5 s, 0.33 Hz, 50 J/cm^2, 10 W/cm^2", "result": "Very high to unbearable"}, {"measurement": "PAIN", "setting": "hair follicle; trial 2: 5 pulses, pulse on 1 s, pulse off 0.5 s, 0.67 Hz, 50 J/cm^2, 10 W/cm^2", "result": "High"}, {"measurement": "PAIN", "setting": "hair follicle; trial 3: 10 pulses, pulse on 0.5 s, pulse off 0.5 s, 1.00 Hz, 50 J/cm^2, 10 W/cm^2", "result": "Intermediate to small"}, {"measurement": "PAIN", "setting": "hair follicle; trial 4: 14 pulses, pulse on 0.35 s, pulse off 0.5 s, 1.18 Hz, 50 J/cm^2, 10 W/cm^2", "result": "None"}, {"measurement": "PAIN", "setting": "hair follicle; trial 5: 14 pulses, pulse on 0.35 s, pulse off 0.1 s, 2.22 Hz, 50 J/cm^2, 10 W/cm^2", "result": "None"}]}]}
